Assays:
[1] = Plasma concentration after single IP dose; assay type: in vivo; conditions: mouse
Protocol: **Single dose (50 mg/kg), IP, in BALB/c, nu/nu, female mice.

[2] = Solubility of A1 in pure solvents
[3] = Excipient screening (visual solubility after 24 hrs)
[4] = Plasma levels of A1 after topical application in nu/nu mice

**Q.** For `COc1cc2ncnc(Nc3cccc(Br)c3)c2cc1OC` [A1, 4-(3-Bromophenylamino)-6,7-dimethoxyquinazoline], which “plasma half-life (in words)” value ([1]; in vivo) is on record?
**A.** short plasma half-life

**Q.** And the concentration at 5 min ([1]; plasma, single dose 50 mg/kg IP, BALB/c nu/nu female mice, 5 min)?
**A.** 17900 ± 4300 ng/mL

**Q.** What about the concentration at […] ([1]; plasma, single dose 50 mg/kg IP, BALB/c nu/nu female mice, 15 min) of the same compound?
**A.** 6300 ± 3700 ng/mL

**Q.** And the concentration at 1 h ([1]; plasma, single dose 50 mg/kg IP, BALB/c nu/nu female mice, 60 min)?
**A.** 2000 ± 900 ng/mL

**Q.** And the “Not Soluble at” value ([2]; Benzyl Alcohol, NF)?
**A.** 4.77 % w/w

**Q.** And the Soluble at ([2]; Benzyl Alcohol, NF)?
**A.** 3.60 % w/w

**Q.** And the “Not Soluble at” value ([2]; Benzyl Benzoate, USP (printed Betizyl Berizoate))?
**A.** 0.85 % w/w

**Q.** And the “Not Soluble at” value ([2]; Caprylic/Capric Triglyceride (Miglyol 812))?
**A.** 0.84 % w/w

**Q.** What about the “Not Soluble at” value ([2]; Dehydrated Alcohol, USP) of the same compound?
**A.** 0.98 % w/w

**Q.** And the Soluble at ([2]; Dehydrated Alcohol, USP)?
**A.** 0.76 % w/w

**Q.** And the compatibility / solubility ([2]; Diethyl Sebacate)?
**A.** not compatible (yellow)

**Q.** And the “Not Soluble at” value ([2]; Diisopropyl Adipate)?
**A.** 0.66 % w/w

**Q.** What about the “Not Soluble at” value ([2]; Dimethyl isosorbide) of the same compound?
**A.** 0.97 % w/w

**Q.** What about the “Not Soluble at” value ([2]; Ethoxydiglycol (Transcutol)) of the same compound?
**A.** 3.74 % w/w

**Q.** And the Soluble at ([2]; Ethoxydiglycol (Transcutol))?
**A.** 2.41 % w/w

**Q.** What about the “Not Soluble at” value ([2]; Finsolve TN (Finetex)) of the same compound?
**A.** 1.27 % w/w

**Q.** And the “Not Soluble at” value ([2]; Hexylene Glycol)?
**A.** 2.05 % w/w

**Q.** And the Soluble at ([2]; Hexylene Glycol)?
**A.** 0.98 % w/w

**Q.** And the “Not Soluble at” value ([2]; Isopropyl Alcohol, 99%)?
**A.** 1.25 % w/w

**Q.** And the “Not Soluble at” value ([2]; Isotearyl Alcohol)?
**A.** 0.99 % w/w

**Q.** What about the Soluble at ([2]; Laureth 4) of the same compound?
**A.** 4.10 % w/w

**Q.** And the “Not Soluble at” value ([2]; Octyldodecanol, NF)?
**A.** 0.68 % w/w

**Q.** And the “Not Soluble at” value ([2]; Oleic Acid, NF)?
**A.** 1.00 % w/w

**Q.** What about the “Not Soluble at” value ([2]; Polyethylene Glycol 300, USP) of the same compound?
**A.** 2.10 % w/w

**Q.** What about the Soluble at ([2]; Polyethylene Glycol 300, USP) of the same compound?
**A.** 1.00 % w/w

**Q.** And the “Not Soluble at” value ([2]; Polyethylene Glycol 400, USP)?
**A.** 2.44 % w/w

**Q.** And the Soluble at ([2]; Polyethylene Glycol 400, USP)?
**A.** 1.76 % w/w

**Q.** And the “Not Soluble at” value ([2]; Polysorbate 20, NF)?
**A.** 0.99 % w/w

**Q.** What about the “Not Soluble at” value ([2]; Propylene Carbonate, NF) of the same compound?
**A.** 1.46 % w/w

**Q.** And the Soluble at ([2]; Propylene Carbonate, NF)?
**A.** 0.98 % w/w

**Q.** What about the “Not Soluble at” value ([2]; Propylene Glycol, USP) of the same compound?
**A.** 0.59 % w/w

**Q.** What about the “Not Soluble at” value ([2]; Triacetin USP) of the same compound?
**A.** 0.96 % w/w

**Q.** What about the “solubility in nonirritant solvents (in words)” value ([2]; among anticancer compounds) of the same compound?
**A.** relative high solubility in nonirritant solvents

**Q.** And the “Solubility After 24 Hrs.” value ([3]; 1.0 N HCl)?
**A.** Insoluble/Yellow

**Q.** What about the “Solubility After 24 Hrs.” value ([3]; Benzyl Alcohol) of the same compound?
**A.** Soluble

**Q.** What about the “Solubility After 24 Hrs.” value ([3]; Conc. NaOH) of the same compound?
**A.** Insoluble

**Q.** What about the “Solubility After 24 Hrs.” value ([3]; Distilled H2O) of the same compound?
**A.** Insoluble

**Q.** What about the “Solubility After 24 Hrs.” value ([3]; EtOH/Poly-80 50:50, [Drug] 10 mg/mL) of the same compound?
**A.** Slightly Soluble

**Q.** What about the “Solubility After 24 Hrs.” value ([3]; Ethanol) of the same compound?
**A.** Partially Soluble

**Q.** What about the “Solubility After 24 Hrs.” value ([3]; Isopropyl Myristate) of the same compound?
**A.** Insoluble/Cloudy

**Q.** What about the “Solubility After 24 Hrs.” value ([3]; Oleic Acid) of the same compound?
**A.** Insoluble/Yellow/Cloudy

**Q.** What about the “Solubility After 24 Hrs.” value ([3]; PEG-300) of the same compound?
**A.** Soluble

**Q.** And the “Solubility After 24 Hrs.” value ([3]; Polysorbate-80, [Drug] 10 mg/mL)?
**A.** Slightly Soluble

**Q.** And the “Solubility After 24 Hrs.” value ([3]; Propylene Carbonate)?
**A.** Soluble/80C/10 min.

**Q.** What about the “Solubility After 24 Hrs.” value ([3]; Propylene Glycol) of the same compound?
**A.** Slightly Soluble/Clear/

**Q.** What about the “Solubility After 24 Hrs.” value ([3]; Triacetin) of the same compound?
**A.** Partially Soluble

**Q.** And the concentration at 0.5 h ([4]; mouse, plasma, topical or ocular)?
**A.** < 2000 ng/mL

**Q.** What about the “discomfort or increased grooming behavior” value ([4]; topical 2% ointment, nu/nu mice) of the same compound?
**A.** no discomfort or increased grooming behavior

Reference: patent US6004967A, “Psoriasis treatment with quinazoline compounds” (priority 1997, dated 1999)
